Data as given in US5202315A, “Cephalosporin compounds” (Lucky, Ltd., priority 1989, dated 1993).
≈ marks a conversion by molar mass, not a printed value.

Assays:
Assay in all cases: Antibacterial activity, MIC
Type in all cases: cell-based
[1] = test system: Enterobacter aerogenes ATCC 29751; details: Klebsiella aerogenes, ATCC29751; ATCC 29751; agar two-fold dilution, 37° C., 20 hours; read-out: MIC
Experimental: (§1) Also, the in vitro antibacterial activity was determined by the by a two-fold dilution method as described below:
(§2) That is, the two-fold serial dilutions of the compound were made dispersed in Muller-Hinton agar medium. 2 μl of standard test strain which had the 10^7 CFU per ml was inoculated on the medium, and was incubated at 37° C. for 20 hours.

[2] = test system: Enterobacter cloacae ATCC 27508; details: ATCC27508, ATCC 27508, agar two-fold dilution, 37° C., 20 hours, read-out: MIC
Experimental: as §1, §2

[3] = test system: Shigella sonnei ATCC 11060; details: ATCC11060, ATCC 11060, agar two-fold dilution, 37° C., 20 hours, read-out: MIC
Experimental: as §1, §2

[4] = test system: Proteus vulgaris ATCC 6059; details: ATCC6059, ATCC 6059, agar two-fold dilution, 37° C., 20 hours, read-out: MIC
Experimental: as §1, §2

[5] = test system: Pseudomonas aeruginosa ATCC 10145; details: ATCC10145, ATCC 10145, agar two-fold dilution, 37° C., 20 hours, read-out: MIC
Experimental: as §1, §2

[6] = test system: Pseudomonas aeruginosa ATCC 25619; details: ATCC25619, ATCC 25619, agar two-fold dilution, 37° C., 20 hours, read-out: MIC
Experimental: as §1, §2

[7] = test system: Acinetobacter calcoaceticus ATCC 15473; details: ATCC15473, ATCC 15473, agar two-fold dilution, 37° C., 20 hours, read-out: MIC
Experimental: as §1, §2

[8] = test system: Serratia marcescens ATCC 27117; details: ATCC27117, ATCC 27117, agar two-fold dilution, 37° C., 20 hours, read-out: MIC
Experimental: as §1, §2

[9] = test system: Providencia rettgeri ATCC 9250; details: ATCC9250, agar two-fold dilution, 37° C., 20 hours
Experimental: as §1, §2

[10] = test system: Proteus mirabilis ATCC 25933; details: ATCC25933, ATCC 25933, agar two-fold dilution, 37° C., 20 hours, read-out: MIC
Experimental: as §1, §2

[11] = test system: Morganella morganii ATCC 8076h; details: ATCC8076H, agar two-fold dilution, 37° C., 20 hours
Experimental: as §1, §2

[12] = test system: Staphylococcus epidermidis ATCC 12228; details: ATCC12228, ATCC 12228, agar two-fold dilution, 37° C., 20 hours, read-out: MIC
Experimental: as §1, §2

[13] = test system: Klebsiella pneumoniae ATCC 10031; details: ATCC10031, ATCC 10031, agar two-fold dilution, 37° C., 20 hours, read-out: MIC
Experimental: as §1, §2

[14] = test system: Pseudomonas aeruginosa ATCC 27853; details: ATCC27853, ATCC 27853, agar two-fold dilution, 37° C., 20 hours, read-out: MIC
Experimental: as §1, §2

[15] = test system: Shigella flexneri ATCC 11836; details: ATCC11836, agar two-fold dilution, 37° C., 20 hours
Experimental: as §1, §2

[16] = test system: Staphylococcus aureus ATCC 6538p; details: ATCC6538P, ATCC 6538p, agar two-fold dilution, 37° C., 20 hours, read-out: MIC
Experimental: as §1, §2

[17] = test system: Streptococcus faecalis ATCC 29212; details: Enterococcus faecalis, ATCC29212; ATCC 29212; agar two-fold dilution, 37° C., 20 hours; read-out: MIC
Experimental: as §1, §2

[18] = test system: Escherichia coli ATCC 25922; details: ATCC25922, agar two-fold dilution, 37° C., 20 hours
Experimental: as §1, §2

[19] = test system: Citrobacter freundii ATCC 8090; details: ATCC8090, ATCC 8090, agar two-fold dilution, 37° C., 20 hours, read-out: MIC
Experimental: as §1, §2

[20] = test system: Bacillus cereus ATCC 11778; details: ATCC11778, ATCC 11778, agar two-fold dilution, 37° C., 20 hours, read-out: MIC
Experimental: as §1, §2

[21] = test system: Escherichia coli ATCC 10536; details: ATCC10536, agar two-fold dilution, 37° C., 20 hours
Experimental: as §1, §2

[22] = test system: Micrococcus luteus ATCC 9341; details: ATCC9341, ATCC 9341, agar two-fold dilution, 37° C., 20 hours, read-out: MIC
Experimental: as §1, §2

[23] = test system: Staphylococcus aureus ATCC 10537; details: ATCC10537, ATCC 10537, agar two-fold dilution, 37° C., 20 hours, read-out: MIC
Experimental: as §1, §2

[24] = test system: Bacillus megaterium ATCC 9885; details: Priestia megaterium, ATCC9885; ATCC 9885; agar two-fold dilution, 37° C., 20 hours; read-out: MIC
Experimental: as §1, §2

[25] = test system: Salmonella typhimurium ATCC 14028; details: Salmonella enterica; ATCC 14028; agar two-fold dilution, 37° C., 20 hours; read-out: MIC
Experimental: as §1, §2

| SMILES | MIC [1] [µg/mL] | MIC [2] [µg/mL] | MIC [3] [µg/mL] | MIC [4] [µg/mL] | MIC [5] [µg/mL] | MIC [6] [µg/mL] | MIC [7] [µg/mL] | MIC [8] [µg/mL] | MIC [9] [µg/mL] | MIC [10] [µg/mL] | MIC [11] [µg/mL] | MIC [12] [µg/mL] | MIC [13] [µg/mL] | MIC [14] [µg/mL] | MIC [15] [µg/mL] | MIC [16] [µg/mL] | MIC [17] [µg/mL] | MIC [18] [µg/mL] | MIC [19] [µg/mL] | MIC [20] [µg/mL] | further results |
| --- | --- | --- | --- | --- | --- | --- | --- | --- | --- | --- | --- | --- | --- | --- | --- | --- | --- | --- | --- | --- | --- |
| CC[n+]1c(N)cc(N)nc1SCC1=C(C(=O)[O-])N2C(=O)C(NC(=O)/C(=N\OC(C)(C)C(=O)O)c3nsc(N)n3)C2SC1 (stereo not shown) [Compound I-27] | 2 (≈ 3.13 µM) | 0.063 (≈ 0.0986 µM) | 0.13 (≈ 0.204 µM) | 0.13 (≈ 0.204 µM) | 4 (≈ 6.26 µM) | 2 (≈ 3.13 µM) | 8 (≈ 12.5 µM) | 0.25 (≈ 0.391 µM) | ≤ 0.008 | 0.13 (≈ 0.204 µM) | ≤ 0.008 | 4 (≈ 6.26 µM) | 0.063 (≈ 0.0986 µM) | 2 (≈ 3.13 µM) | 0.25 (≈ 0.391 µM) | 8 (≈ 12.5 µM) | > 128 | 0.13 (≈ 0.204 µM) | 0.25 (≈ 0.391 µM) | > 128 | MIC [21]: 0.13 µg/mL (≈ 0.204 µM); MIC [22]: 0.5 µg/mL (≈ 0.783 µM); MIC [23]: 4 µg/mL (≈ 6.26 µM); MIC [24]: 1 µg/mL (≈ 1.57 µM); MIC [25]: 0.5 µg/mL (≈ 0.783 µM) |
| COc1cccc(OC)c1-[n+]1c(N)cc(N)nc1SCC1=C(C(=O)[O-])N2C(=O)C(NC(=O)/C(=N\OC(C)(C)C(=O)O)c3csc(N)n3)C2SC1 (stereo not shown) [Compound I-43] | 2 (≈ 2.68 µM) | 0.25 (≈ 0.335 µM) | 0.5 (≈ 0.67 µM) | 0.5 (≈ 0.67 µM) | 8 (≈ 10.7 µM) | 4 (≈ 5.36 µM) | 32 (≈ 42.9 µM) | 2 (≈ 2.68 µM) | 0.031 (≈ 0.0416 µM) | 0.5 (≈ 0.67 µM) | 0.031 (≈ 0.0416 µM) | 2 (≈ 2.68 µM) | 0.25 (≈ 0.335 µM) | 4 (≈ 5.36 µM) | 0.25 (≈ 0.335 µM) | 4 (≈ 5.36 µM) | > 128 | 0.5 (≈ 0.67 µM) | 1 (≈ 1.34 µM) | 32 (≈ 42.9 µM) | MIC [21]: 0.5 µg/mL (≈ 0.67 µM); MIC [22]: 0.25 µg/mL (≈ 0.335 µM); MIC [23]: 2 µg/mL (≈ 2.68 µM); MIC [24]: 0.25 µg/mL (≈ 0.335 µM); MIC [25]: 2 µg/mL (≈ 2.68 µM) |
| C=CC[n+]1c(N)cc(N)nc1SCC1=C(C(=O)[O-])N2C(=O)C(NC(=O)/C(=N\OCC(=O)O)c3csc(N)n3)C2SC1 (stereo not shown) [Compound I-9] | 1 (≈ 1.61 µM) | ≤ 0.008 | 0.063 (≈ 0.101 µM) | 0.031 (≈ 0.0499 µM) | 16 (≈ 25.7 µM) | 2 (≈ 3.22 µM) | 8 (≈ 12.9 µM) | 0.063 (≈ 0.101 µM) | ≤ 0.008 | 0.031 (≈ 0.0499 µM) | ≤ 0.008 | 1 (≈ 1.61 µM) | 0.031 (≈ 0.0499 µM) | 4 (≈ 6.43 µM) | 0.031 (≈ 0.0499 µM) | 4 (≈ 6.43 µM) | > 128 | 0.031 (≈ 0.0499 µM) | 0.063 (≈ 0.101 µM) | 64 (≈ 103 µM) | MIC [21]: 0.031 µg/mL (≈ 0.0499 µM); MIC [22]: 0.25 µg/mL (≈ 0.402 µM); MIC [23]: 2 µg/mL (≈ 3.22 µM); MIC [24]: 0.25 µg/mL (≈ 0.402 µM); MIC [25]: 0.13 µg/mL (≈ 0.209 µM) |
| CCO/N=C(\C(=O)NC1C(=O)N2C(C(=O)[O-])=C(CSc3nc(N)cc(N)[n+]3CC)CSC12)c1nsc(N)n1 (stereo not shown) [Compound I-21] | 0.5 (≈ 0.861 µM) | 0.016 (≈ 0.0276 µM) | 0.25 (≈ 0.431 µM) | 1 (≈ 1.72 µM) | 4 (≈ 6.89 µM) | 1 (≈ 1.72 µM) | 4 (≈ 6.89 µM) | 0.25 (≈ 0.431 µM) | ≤ 0.008 | 1 (≈ 1.72 µM) | 0.016 (≈ 0.0276 µM) | 0.13 (≈ 0.224 µM) | 0.016 (≈ 0.0276 µM) | 2 (≈ 3.44 µM) | 0.063 (≈ 0.108 µM) | 0.5 (≈ 0.861 µM) | 16 (≈ 27.6 µM) | 0.13 (≈ 0.224 µM) | 0.13 (≈ 0.224 µM) | 16 (≈ 27.6 µM) | MIC [21]: 0.13 µg/mL (≈ 0.224 µM); MIC [22]: 0.016 µg/mL (≈ 0.0276 µM); MIC [23]: 0.25 µg/mL (≈ 0.431 µM); MIC [24]: 0.13 µg/mL (≈ 0.224 µM); MIC [25]: 0.5 µg/mL (≈ 0.861 µM) |
